{"source": "paper PMC6940354", "about": "“Comparative Assessment of the New PDE7 Inhibitor – GRMS-55 and Lisofylline in Animal Models of Immune-Related Disorders: A PK/PD Modeling Approach” (Pharmaceutical Research, 2020)", "assay_type_in_all_cases": "in vivo, rat", "key": {"[1]": {"system": "collagen-induced arthritis (CIA) in female Lewis rats", "experiment": "Body weight, clinical score and paw areas in CIA rats", "conditions": "CIA rats vs control group; rolipram at all assessments post 20th day, (±)-LSF at 26, 33, and 36 day", "experimental": "(§1) At a day 0 of the experiment animals were subcutaneously (SC) injected at the base of the tail with 200 μL of the emulsion using a 27 gauge × 5/8″ needle and Hamilton syringe. At day 7 after the initial immunization, a booster injection with 100 μL of emulsion was performed. Ninety % of rats developed symptoms of disease (paw swelling >150% of day 0) at day 20 of the experiment. At this day, diseased animals were randomly divided into five groups (n = 6). […] One investigated group received (±)-LSF dissolved in saline at an SC dose of 80 mg kg^−1 once daily. The corresponding control groups were administered with appropriate volumes of vehicles IP or SC. At day 40 animals were sacrificed. Hind paws of rats were taken and immersed into 4% buffered formalin solution for a subsequent histological analysis. Blood samples were collected and allowed to clot for 20 min and then centrifuged at 2000 x g for 15 min. Serum samples were collected and frozen at -80°C.\nBody weight and paw size were measured, and clinical score was assessed at days 0, 5, 7, 11, 15, 18, 20, 22, 26, 30, 33, and 36 after the first immunization. Body weight of each rat was normalized to the body weight of the same rat at the day of the first immunization. Disease progression was evaluated by a qualitative clinical score (CS) as described elsewhere (1), where 0 – no symptoms of the disease, such as redness or swelling, 1 – mild, but definite redness and swelling, 2 – moderate redness and swelling, 3 – severe redness and swelling, and 4 – maximally inflamed limbs."}, "[2]": {"system": "collagen-induced arthritis (CIA) in female Lewis rats", "experiment": "Histological evaluation of ankle cross-sections from CIA rats", "conditions": "multiple administration, compared to vehicle control", "experimental": "as §1\nThe morphological studies were performed with the imaging CellSens Dimention (Olympus) software. Osteoarthritis histopathology was assessed based on the symptoms associated with synovial inflammation, chondropathy, and subchondral osteoarthritis. Synovitis index estimation involved synovial inflammation, synovial lining thickness, dense of cellularity, and presence of perivascular lymphoid aggregates, where normal synovium (score 0) is defined as thin linning with sparse cellular distribution and no/few inflammatory cells, mild and moderate synovial inflammation (score 1 to 2) indicate thickness of linning with dense cellularity with inflammatory cells, and severe inflammation (score 3) means hypervascular synovitis containing lymphoid aggregates. Two aspects of chondropathy were graded: surface integrity and chondrocyte yielding score 0 for normal morphology to score 3 for chondral lesion with chondrocyte hypercellurarity and/or cloning, and complete cartilage surface integrity loss. Subchondral plate thickening, bone trabeculae deterioration, bone marrow lesion (bone pseudocysts - cavitary lesion formation) associated with fibrovascular replacement of marrow spaces were accounted for subchondral osteoarthritis with grading score from 0 to 3 in severe lesion. The sample preparation procedure for histological evaluation is described in the supplementary materials.\nThe hind paws were cut about 0.5 cm above the rat joint. Then the joints were fixed in 4% buffered formalin for one week, decalcified, dehydrated in ethanol solutions of increasing concentrations, and embedded in the paraffin blocks. Subsequently, paws were serially cut at 6-μm thickness using a rotational microtome Leica RM 2145 type and stained with Masson's Trichrome. Digital images were taken using a computerized digital camera (Olympus UC90, Olympus)."}, "[3]": {"system": "collagen-induced arthritis (CIA) in female Lewis rats", "experiment": "Collagen-induced arthritis in rats, paw swelling, PK/PD/DIS progression model", "conditions": "for decrease of relative paw swelling: at the last observation time point, once daily from day 20: rolipram 10 mg kg^−1 IP, GRMS-55 50 mg kg^−1 IP, (±)-LSF 80 mg kg^−1 SC", "experimental": "The emulsion of collagen was prepared according to the Protocol for the Successful Induction of Collagen-Induced Arthritis (CIA) in Rats (Chondrex Inc., 2015). Porcine type II collagen dissolved in 0.05 M acetic acid was emulsified with incomplete Freund’s adiuvant (Sigma Aldrich, Germany) using an Omni TH Homogenizer (Omni International, Inc., USA) consisting of a blade with 5 mm diameter. The collagen solution was previously mixed with IFA at a low speed for 1 min and then at the highest speed for 2 min. Then emulsion was being cooled for 5 min in an ice water bath. The emulsification process was repeated 3 times to obtain a stiff emulsion. The emulsion was then transferred into a Hamilton glass syringe, kept at 4°C, and used within 2 h.\nas §1\nPaw edema of arthritic rats was assessed as swelling of the rat hind paws. Measurements of paws were performed using a digital caliper according to the procedure described by Earp et al. ([18]). Each hind leg was measured at two sections, i.e., paw and ankle, and each section was measured at two places (side-to-side and top-to-bottom). The area of each section (elliptical in shape) was calculated from the following equation:2 Area=π·a·b/4 where (a) is side-to-side diameter of the ellipse and (b) is top-to-bottom diameter of the ellipse. Paw and ankle section areas of each leg were subsequently added to obtain one overall measure for the rat hind paw (Areaoverall). Each of these measures was normalized to the same hind paw area measured at day 0 of the experiment (Areazero) to reduce variation in the disease progression resulting from differences in paw size of each rat. Relative paw swelling (Paw) was calculated according to the equation:3 Paw=Areaoverall/Areazero\nPaw size was measured at days 0, 5, 7, 11, 15, 18, 20, 22, 26, 30, 33, and 36 after the first immunization. […]"}, "[4]": {"conditions": "Rattus norvegicus, 480 h, read-out: IC50, concentration producing 50% of maximal inhibition (CIA progression), Final estimate (CV%)"}}, "data": [{"smiles": "CC(O)CCCCn1c(=O)c2c(ncn2C)n(C)c1=O", "note": "(racemic) [(±)-LSF, lisofylline]", "values": [{"measurement": "clinical score values (result in words)", "setting": "[1]", "value": "significantly lower"}, {"measurement": "chondritis / articular cartilage, histological score (result in words)", "setting": "[2]", "value": "attenuated"}, {"measurement": "subchondral osteoarthritis, histological score (result in words)", "setting": "[2]", "value": "failed to significantly diminish"}, {"measurement": "synovitis / synovial inflammation, histological score (result in words)", "setting": "[2]", "value": "significant alleviation"}, {"measurement": "decrease of relative paw swelling", "setting": "[3]", "value": 30.5, "unit": "%"}]}, {"smiles": "Cn1c(=O)c2c(nc(NCCc3ccccc3)n2CCCC(=O)NN=Cc2ccccc2O)n(C)c1=O", "note": "[GRMS-55, 4-(1,3-Dimethyl-2,6-dioxo-8-(phenethylamino)-2,3,6,7-tetrahydro-1H-purin-7-yl)-N′-(2-hydroxybenzylidene)butanehydrazide]", "values": [{"measurement": "clinical score values (result in words)", "setting": "[1]", "value": "did not decreased significantly"}, {"measurement": "chondritis / articular cartilage, histological score (result in words)", "setting": "[2]", "value": "attenuated"}, {"measurement": "subchondral osteoarthritis, histological score (result in words)", "setting": "[2]", "value": "attenuated"}, {"measurement": "synovitis / synovial inflammation, histological score (result in words)", "setting": "[2]", "value": "significant alleviation"}, {"measurement": "IC50 at 50 mg/kg", "setting": "[3]; [4]", "value": 0.26, "unit": "µg/mL"}, {"measurement": "decrease of relative paw swelling", "setting": "[3]", "value": 31.5, "unit": "%"}]}, {"smiles": "COc1ccc(C2CNC(=O)C2)cc1OC1CCCC1", "note": "(stereo not shown) [Rolipram, rolipram]", "values": [{"measurement": "clinical score values (result in words)", "setting": "[1]", "value": "significantly lower"}, {"measurement": "chondritis / articular cartilage, histological score (result in words)", "setting": "[2]", "value": "significant amelioration"}, {"measurement": "subchondral osteoarthritis, histological score (result in words)", "setting": "[2]", "value": "significant amelioration"}, {"measurement": "synovitis / synovial inflammation, histological score (result in words)", "setting": "[2]", "value": "significant amelioration"}, {"measurement": "IC50", "setting": "[3]; [4]", "value": 0.01, "unit": "µg/mL"}]}]}
